In ChEMBL document CHEMBL1777711, “Synthesis and bioactivity of new Finasteride conjugate” (Bioorg Med Chem Lett, 2011):
Activity calls are given as the source filed them. No cut-off for these calls is given here.

Assays:
Rattus norvegicus [1] = test: Inhibition of testosterone propionate-induced castrated Wistar rat benign prostatic hyperplasia model assessed as decrease in epithelial protrusions at 10 mg/kg, iv by histochemistry; type: functional, organism-based; parameters: dose 10 mg/kg; conditions: Wister
Rattus norvegicus [2] = test: Inhibition of testosterone propionate-induced castrated Wistar rat benign prostatic hyperplasia model assessed as decrease in seminal vesicles weight at 10 mg/kg, iv for 14 days; type: functional, organism-based; parameters: dose 10 mg/kg; conditions: Wister
[3] = biological target: T1, 3-oxo-5-alpha-steroid 4-dehydrogenase 2 (Rattus norvegicus, UniProt P31214); test: Inhibition of rat 5-alpha-reductase type 2 by Lineweaver-Burk plot
T1 sequence (P31214 whole entry): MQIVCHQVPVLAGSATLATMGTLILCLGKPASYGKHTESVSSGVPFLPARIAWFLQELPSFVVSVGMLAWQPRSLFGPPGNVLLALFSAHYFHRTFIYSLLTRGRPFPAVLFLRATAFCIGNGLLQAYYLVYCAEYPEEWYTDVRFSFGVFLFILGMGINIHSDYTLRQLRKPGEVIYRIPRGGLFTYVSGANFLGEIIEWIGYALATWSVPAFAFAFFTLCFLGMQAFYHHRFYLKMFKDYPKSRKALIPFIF

Rattus norvegicus [4] = test: Inhibition of testosterone propionate-induced castrated Wistar rat benign prostatic hyperplasia model assessed as decrease in hyperplasia of interstitial tissues at 10 mg/kg, iv by histochemistry; type: functional, organism-based; parameters: dose 10 mg/kg; conditions: Wister
Rattus norvegicus [5] = test: Inhibition of testosterone propionate-induced castrated Wistar rat benign prostatic hyperplasia model assessed as decrease in pseudostratified epithelia at 10 mg/kg, iv by histochemistry; type: functional, organism-based; parameters: dose 10 mg/kg; conditions: Wister
Rattus norvegicus [6] = test: Toxicity in testosterone propionate-induced castrated Wistar rat benign prostatic hyperplasia model assessed as body weight at 2 to 50 mg/kg, iv for 14 days; type: organism-based, Wister; parameters: dose 2-50 mg/kg, route intravenous; conditions: in vivo, 336 h
Rattus norvegicus [7] = test: Inhibition of testosterone propionate-induced castrated Wistar rat benign prostatic hyperplasia model assessed as decrease in prostate weight at 10 mg/kg, iv for 14 days; type: functional, organism-based; parameters: dose 10 mg/kg; conditions: Wister, Prostate gland
Rattus norvegicus [8] = test: Inhibition of testosterone propionate-induced castrated Wistar rat benign prostatic hyperplasia model assessed as prostate gland arrangement order at 10 mg/kg, iv by histochemistry; type: functional, organism-based; parameters: dose 10 mg/kg; conditions: Wister
Rattus norvegicus [9] = test: Inhibition of testosterone propionate-induced castrated Wistar rat benign prostatic hyperplasia model assessed as decrease in prostate weight at 2 mg/kg, iv for 14 days; type: functional, organism-based; parameters: dose 2 mg/kg; conditions: Wister, Prostate gland
Rattus norvegicus [10] = test: Inhibition of testosterone propionate-induced castrated Wistar rat benign prostatic hyperplasia model assessed as decrease in seminal vesicles weight at 50 mg/kg, iv for 14 days; type: functional, organism-based; parameters: dose 50 mg/kg; conditions: Wister
Rattus norvegicus [11] = test: Inhibition of testosterone propionate-induced castrated Wistar rat benign prostatic hyperplasia model assessed as decrease in prostate weight at 50 mg/kg, iv for 14 days; type: functional, organism-based; parameters: dose 50 mg/kg; conditions: Wister, Prostate gland
Rattus norvegicus [12] = test: Toxicity in testosterone propionate-induced castrated Wistar rat benign prostatic hyperplasia model assessed as vital signs at 10 mg/kg, iv […]; type: organism-based, Wister; parameters: dose 10 mg/kg, route intravenous; conditions: in vivo
Rattus norvegicus [13] = test: Inhibition of testosterone propionate-induced castrated Wistar rat benign prostatic hyperplasia model assessed as decrease in seminal vesicles weight at 2 mg/kg, iv for 14 days; type: functional, organism-based; parameters: dose 2 mg/kg; conditions: Wister

Compound	inhibition (Rattus norvegicus [1])	inhibition (Rattus norvegicus [2])	IC50 [3] [nM]	inhibition (Rattus norvegicus [4])	inhibition (Rattus norvegicus [5])	Activity (Rattus norvegicus [6])	inhibition (Rattus norvegicus [7])	inhibition (Rattus norvegicus [8])	inhibition (Rattus norvegicus [9])	inhibition (Rattus norvegicus [10])	inhibition (Rattus norvegicus [11])	Activity (Rattus norvegicus [12])	inhibition (Rattus norvegicus [13])
CC(C)(C)NC(=O)[C@H]1CC[C@H]2[C@@H]3CC[C@H]4NC(=O)C=C[C@]4(C)[C@H]3CC[C@]12C [FINASTERIDE]	Active	Active	147	Active	Active	Non-toxic	Active	Active					
CC(C)(C)N(C(=O)C1CSCN1C(=O)C1CCC(=O)N1)C(=O)[C@H]1CC[C@H]2[C@@H]3CC[C@H]4NC(=O)C=C[C@]4(C)[C@H]3CC[C@]12C (stereo partly specified)	Active	Active	88	Active	Active	Non-toxic	Active	Active	Active	Active	Active	Non-toxic	Active
